Here are results for three compounds from patent publication US6149948A, “Method of decreasing plasma cholesterol and triglycerides with a chromium-containing complex” (University of Alabama, priority 1999, dated 2000).

The subject of data set [1] is male Sprague Dawley rats. As to the kind of experiment: Plasma variables after 4, 8 and 12 weeks of supplementation. In kind it is in vivo, rat. On the procedure:
Solid food intake and body mass were monitored daily.
Blood was collected from the tail after four, eight, and twelve weeks of Cr or H2 O administration. Prior to blood collection, animals were fasted 12 to 15 hours.
Immediately after blood removal, 0.5 mg/mL heparin and 10 mg/mL NaF were added to the blood. Blood was next immediately centrifuged; the blood plasma was tested for glucose, total cholesterol, triglycerides, low density lipoprotein (LDL) cholesterol (week 12 only), and high density lipoprotein (HDL) cholesterol (week 12 only) using Diagnostic Kits from Sigma Chemical Co. (St. Louis, Mo.) and insulin using double antibody or antibody coated kits from ICN Biomedicals (Costa Mesa, Calif.).
Statistical analyses were performed by analysis of variance. All values are presented as mean±SEM. P values are calculated using standard deviations.

In data set [2] the test system is male Sprague Dawley rats. Particulars: rat, in vivo.
Protocol: (§1) Four week old male Sprague Dawley rats were allowed to fed ad libitum on a commercial rat food and tap water. Rats were raised in standard plastic and stainless steel cages on a 12 hour light-dark cycle. Solid food intake and body mass were monitored daily. Twenty four rats were divided randomly into three groups of eight. […] The last group was injected with 200 μL of doubly deionized water daily and served as the control. After 12 weeks, the animals were sacrificed by carbon dioxide asphyxiation. Liver, kidney, heart, pancreas, testes, and epididymal fat were quickly harvested and weighed. Liver and kidney were placed into plastic screw-top containers and stored at -80° C. for further analysis.
Data set [3] relates to pUC19 plasmid DNA.
Protocol: The reactions contain pUC19 (39 μM in base pairs) and 50 μM phosphate buffer, pH 7.0, and: Lane 2, 5 MM ascorbate; Lanes 3-7, 5 mM ascorbate and 120, 40, 4.0, 0.40, and 0.040 μM 1, respectively; Lane 8, 5 mM ascorbate and 1.2 μM Cr(pic)3 ; Lane 9, 5 mM ascorbate and 120 pM 1 under argon; Lane 10, 5 mM ascorbate, 120 μM 1, and 1 M EtOH; Lane 11, 5 mM ascorbate, 120 μM 1, and 1 M t-BuOH; Lane 12, 5 mM ascorbate, 120 μM 1, and 100 μg/mL SOD; and Lane 13, 5 mM ascorbate, 120 μl , and 100 μ/mL catalase. Reactions were allowed to proceed 60 minutes before quenching.
A typical reaction was carried out mixing aliquots of pUC19 (in 5 μM Tris, 500 EDTA buffer (pH 8.0)), reductant in H2 O, LMWCr in 50 mM NH4 OAc (pH 6.5) or 1 in H2 O, phosphate buffer (pH 7.0), and H2 O to give a final volume of 15 μL; the final phosphate concentration was 50 mM. Inhibitors were added as solutions in H2 O, solutions in phosphate buffer, or as neat liquids. Reactions were allowed to proceed 180 minutes unless otherwise noted. All reactions were quenched by addition of loading buffer (24% glycerol and 0.1% bromophenol blue). Seven microliter aliquots were loaded directly onto a 1% agarose gel and electrophoresed at 60 V. The gel was stained with ethidium bromide and was photographed on a UV transilluminator. […]
Another data set deals with DH5α E. coli cells. Conditions: DNA incubated 3 hrs with complex and peroxide; ampicillin plates.
Data set [4] relates to insulin-activated insulin receptor. Conditions: cited from earlier work.
Data set [5] relates to pUC19 plasmid DNA. Conditions: cited from earlier work.
Data set [6] has as its system male Sprague Dawley rats. The experiment in a line: 12-week chromium supplementation of rats: body and tissue masses, toxic effects.
Protocol: as §1
In the next data set the test system is rats. Particulars: up to 1500 μg/kg diet for up to 24 weeks; cited from earlier work.
Data set [7] deals with cultured Chinese hamster ovary cells. Particulars: cited from earlier work.
Setting [8] is: plasma, Week 4, fasted rats, 20 μg Cr/kg daily i.v., mean ± SEM.
Setting [9] is: plasma, Week 8, fasted rats, 20 μg Cr/kg daily i.v., mean ± SEM.
Where [10] appears, read: plasma, Week 12, fasted rats, 20 μg Cr/kg daily i.v., mean ± SEM.

Protocol for DH5α E. coli cells: A reaction mixture containing 10 μg of pUC19, 1.5 mM 1, and 0.900 mM H2 O in 10 mM Tris, pH 8.0 was allowed to react for 3 hours at 25° C. Quench buffer was added, and the sample was immediately loaded onto a 1% agarose gel containing 0.5 μg ml^-1 of ethidium bromide. After electrophoresis in 1×TBE buffer, the band at 3.5 kB was excised from the gel, and the DNA was removed from the gel using a Qiagen gel purification kit. The eluted DNA was gel-quantitated and used without further modification for transformation.
Electrocompetent DH5α E. coli cells were electroporated using 1 μL of 0.1 μg mL^-1 of either trimer-nicked DNA or supercoiled pUC19 plasmid DNA in 50 μL of cells. The E. coli cells were rescued by adding 1 mL of SOC media (20 gL^-1 Bactotryptone, 5 gL^-1 yeast extract, 9 mM NaCl, 20 mM glucose, pH 7.5), followed by incubation at 37° C. for 1 hour. Each cell suspension was diluted 1:100 with SOC media, and 50 μL of each diluted suspension was spread on separate LB-ANM agar plates containing 80 μg mL^-1 X-gal, 100 μM IPTG, and 100 μg mL^-1 ampicillin. The X-gal and IPTG were added to facilitate detection of colonies. The plates were placed in a 37° C. incubator overnight.

In the data set on male Sprague Dawley rats [1] (setting [8]), `CCC(=O)[O-].CCC(=O)[O-].CCC(=O)[O-].CCC(=O)[O-].CCC(=O)[O-].CCC(=O)[O-].O.O.O.[Cr+3].[Cr+3].[Cr+3].[O-2]` [Compound 1, [Cr3 O(O2 CCH2 CH3)6 (H2 O)3]^+] showed a Glucose of 168 ± 33 mg/dL, an Insulin of 99.0 ± 3.2 μIU/mL, a Total cholesterol of 65.2 ± 3.4 mg/dL and a Triglycerides of 83.3 ± 2.7 mg/dL. In the data set with male Sprague Dawley rats [1] (setting [9]), the Glucose is given as 75.5 ± 2.9 mg/dL, the Insulin is listed as 43.3 ± 2.1 μIU/mL and the Total cholesterol is 63.8 ± 3.3 mg/dL. In the data set on male Sprague Dawley rats [1] (setting [10]), this compound had a Glucose of 68.2 ± 2.8 mg/dL, an HDL cholesterol of 10.7 ± 0.65 mg/dL, an Insulin of 43.0 ± 1.9 μIU/mL and an LDL cholesterol of 25.6 ± 2.4 mg/dL. In the data set on male Sprague Dawley rats [1] (setting [10]), this compound returned a Total cholesterol of 46.9 ± 2.8 mg/dL and a Triglycerides of 53.2 ± 3.7 mg/dL. Further, in the data set with male Sprague Dawley rats [1] (week 12), the “LDL cholesterol concentration less than that of the control” value is on record as roughly 40% and the “total cholesterol concentration less than that of the control” value turned out to be 33%. The “iron concentration of liver” value in the data set with male Sprague Dawley rats [2] is recorded as 6.0×10^2 μg/g dry mass. Besides, the “DNA cleavage in the presence of dithiothreitol” value with pUC19 plasmid DNA [3] is “does not increase the amount of cleavage”. For the same compound, the “colonies of E. coli transformed with complex-nicked pUC19 versus supercoiled pUC19” value in the data set with DH5α E. coli cells is given as “the same number of colonies”. Moreover, in data set [4], the “stimulation of insulin receptor tyrosine kinase activity” value was “mimic the ability of LMWCr to stimulate insulin receptor kinase activity”. Moreover, the “DNA cleavage (literature)” value with pUC19 plasmid DNA [5] is “not to lead to DNA cleavage”. The “toxic effects of supplementation” value with male Sprague Dawley rats [6] (12 weeks, 20 μg Cr/kg daily i.v.) is “no toxic effects were observed”. In the data set on male Sprague Dawley rats [6] (after 12 weeks, daily tail vein injection, 20 μg Cr per kg body mass, mean ± SEM, eight rats), the “Tissue mass, Epididymal fat” value is given as 4.44 + 0.45 grams.
Take `CC(=O)[O-].CC(=O)[O-].CC(=O)[O-].CC(=O)[O-].CC(=O)[O-].CC(=O)[O-].O.O.O.[Cr+3].[Cr+3].[Cr+3].[O-2]` [acetate analogue of 1, [Cr3 O(OAc)6 (H2 O)3]^+, reference compound]: in the data set on pUC19 plasmid DNA [5] (Cr(pic)3: 120 nM chromium, 5 mM ascorbic acid or thiols, acetate analogue: ascorbate), the “DNA cleavage in the presence of biological reductants (literature)” value was “unable to catalyze DNA cleavage in the presence of ascorbate”.
On to “chromium(III) tris(picolinate) [Cr(pic)3]”, for which, in the data set on rats, the acute toxic effects entry is recorded as “no acute toxic effects”. Moreover, in data set [7], the DNA strand breaks entry was “lead to DNA strand breaks”.
